Earlier results as cited in US7838561B2, “Method for preventing or treating cardiac hypertrophy” (Wisconsin Alumni Research Foundation, priority 2004, dated 2010).
Entries after “also recorded” stand apart in the source; their conditions may differ. Like-named read-outs stand apart in the source and are kept apart here.

Legend:
[1] = target: T1, RARα (Homo sapiens, UniProt P10276)
T1 sequence (P10276 1-462): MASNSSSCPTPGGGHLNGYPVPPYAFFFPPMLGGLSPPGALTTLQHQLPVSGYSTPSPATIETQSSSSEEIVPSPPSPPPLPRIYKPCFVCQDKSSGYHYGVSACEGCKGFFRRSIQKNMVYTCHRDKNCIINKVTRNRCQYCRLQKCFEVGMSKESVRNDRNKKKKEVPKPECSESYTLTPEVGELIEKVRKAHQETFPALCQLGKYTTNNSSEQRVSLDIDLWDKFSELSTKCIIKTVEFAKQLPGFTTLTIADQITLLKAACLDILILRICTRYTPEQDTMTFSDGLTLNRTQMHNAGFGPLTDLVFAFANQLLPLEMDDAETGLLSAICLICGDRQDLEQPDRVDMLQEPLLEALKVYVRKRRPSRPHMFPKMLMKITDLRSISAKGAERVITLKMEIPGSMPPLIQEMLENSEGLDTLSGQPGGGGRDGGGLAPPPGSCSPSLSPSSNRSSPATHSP

[2] = target: T2, RARγ (Homo sapiens, UniProt P13631)
T2 sequence (P13631 1-454): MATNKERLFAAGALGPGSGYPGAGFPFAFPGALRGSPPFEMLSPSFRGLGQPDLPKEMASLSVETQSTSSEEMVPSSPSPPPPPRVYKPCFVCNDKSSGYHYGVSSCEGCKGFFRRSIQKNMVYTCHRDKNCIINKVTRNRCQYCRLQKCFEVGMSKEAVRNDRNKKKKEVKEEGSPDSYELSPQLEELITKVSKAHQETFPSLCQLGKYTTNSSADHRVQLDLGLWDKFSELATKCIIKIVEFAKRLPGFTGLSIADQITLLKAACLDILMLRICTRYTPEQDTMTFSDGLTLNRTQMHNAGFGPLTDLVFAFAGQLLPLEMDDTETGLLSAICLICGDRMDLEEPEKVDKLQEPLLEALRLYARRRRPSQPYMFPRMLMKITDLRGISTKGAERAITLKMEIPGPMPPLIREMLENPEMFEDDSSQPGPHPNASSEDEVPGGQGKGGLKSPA

[3] = topical, 0, 1.44, 7.2, 36.0 μmol/kg/day, mice
[4] = system: RARs
[5] = system: human cervical cancer cell line ECE16-1
[6] = target: T3, RARβ (Homo sapiens, UniProt P10826)
T3 sequence (P10826 1-455): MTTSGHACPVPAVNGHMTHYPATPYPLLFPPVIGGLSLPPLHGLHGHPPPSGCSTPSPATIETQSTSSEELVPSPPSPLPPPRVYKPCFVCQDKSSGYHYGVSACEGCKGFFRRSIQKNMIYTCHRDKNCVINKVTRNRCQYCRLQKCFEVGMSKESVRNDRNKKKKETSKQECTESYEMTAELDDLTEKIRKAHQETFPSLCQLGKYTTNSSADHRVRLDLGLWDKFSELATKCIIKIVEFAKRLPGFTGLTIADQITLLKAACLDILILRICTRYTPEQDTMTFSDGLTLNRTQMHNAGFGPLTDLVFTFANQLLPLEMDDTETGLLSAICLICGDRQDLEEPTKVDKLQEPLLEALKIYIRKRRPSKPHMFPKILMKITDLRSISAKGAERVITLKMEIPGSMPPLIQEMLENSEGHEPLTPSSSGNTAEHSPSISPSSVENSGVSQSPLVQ

[7] = system: mouse limb bud chondrocytes
[8] = system: bone marrow granulocytic precursors; conditions: oral, 0.5 mg/kg/day for 10 days, mice
[9] = system: prostate carcinoma cell lines
[10] = target: T3, RARβ; remark: listed apart in the source
[11] = target: T1, RARα; remark: listed apart in the source
[12] = target: T2, RARγ; remark: listed apart in the source
[13] = system: acute promyelocytic leukemia; conditions: RA triggers differentiation
[14] = system: RAR and RXR
[15] = system: nuclear retinoid receptors
[16] = in vivo
[17] = target: RBP (Homo sapiens, UniProt P02753)
[18] = system: mammary epithelial cell; conditions: 1 μM
[19] = system: testicular cells
[20] = system: gastrulation-stage zebrafish embryo
[21] = system: RARs; conditions: in vitro
[22] = system: rabbit HIG-82 synovial fibroblasts; conditions: 0.01 to 10 μM
[23] = ip, 15 mg/kg/d
[24] = 20 mg/kg/day, 7 days, subcutaneous, rats
[25] = system: testicular cells; conditions: rabbits, 2, 10, 50 mg/kg orally for 1 wk
[26] = system: AP-1

In the case of `Cc1ccc(C2=CCC(C)(C)c3ccc(C#Cc4ccc(C(=O)O)cc4)cc32)cc1` [AGN 193109], the Kd [1] is listed as 0.016 µM, the Kd [2] is listed as 0.007 µM and the “effect on TTNPB toxicity (cutaneous irritation, weight loss, mortality)” value [3] is listed as “counteracts the toxicity symptoms”. The “hormone action of RA in skin” value (later in development, single oral dose of 100 mg/kg) was “suppresses the hormone action of RA in skin”, the placental transfer (pregnant mouse) was “readily crosses the placenta” and the “antagonism of retinoid-specific events in craniofacial development” value (pregnant mouse, 1 mg/kg single oral dose) was “sufficient to antagonize retinoid-specific events in craniofacial development”. For the same molecule, the “Receptor Specificity” value [4] was “pan-RAR antagonist; also recorded: RARαβγ”, the partial agonist activity [5] was “did not have partial agonist activity” and the “retinoid-mediated activities (proliferation, keratin & RARβ gene expression)” value ([5]; 10 nM, 100 nM) was “suppresses retinoid-mediated activities”. For the same molecule, the Kd [6] was 0.007 µM.
In the case of `Cc1ccc(C2=CC(C)(C)Oc3c(Br)cc(C(=O)Nc4ccc(C(=O)O)c(F)c4)cc32)cc1` [AGN 194301], the Kd [1] is listed as 0.003 µM, the “differentiation of limb bud chondrocytes, Sox9 induction” value ([7]; 1 μM) is listed as “overcome RA signaling and permit the differentiation of mouse limb bud chondrocytes” and the Kd [2] is listed as 7.25 µM. The “Receptor Specificity” value [4] was “RARα” and the Kd [6] was 0.32 µM.
In the case of `CCc1ccc(C2=CC(C)(C)Sc3ccc(C#Cc4ccc(C(=O)O)cc4)cc32)cc1` [AGN 194310], the Kd [1] is listed as 0.003 µM, the “differentiation of limb bud chondrocytes, Sox9 induction” value ([7]; 50 nM) is listed as “overcome RA signaling and permit the differentiation of mouse limb bud chondrocytes” and the Kd [2] is listed as 0.005 µM. For the same molecule, the “frequency of bone marrow granulocytic precursors” value [8] was “sufficient to elevate the frequency of bone marrow granulocytic precursors”, the “signs of ill health or abnormal pathology” value [8] was “did not show signs of ill health or abnormal pathology” and the “potency relative to all-trans-retinoic acid” value [9] was 12-22 times. The “Receptor Specificity” value [4] was “pan-RAR antagonist; also recorded: RARαβγ” and the Kd [6] was 0.002 µM.
For `CC1=C(/C=C/C(C)=C/C=C/C(C)=C/C(=O)O)C(C)(C)CCC1` [All-trans-retinoic acid], the “Receptor Specificity” value [4] is listed as “RARαβγ”.
In the case of `CC1(C)CC=C(c2cnc3ccccc3c2)c2cc(C(=O)Nc3ccc(C(=O)O)cc3)ccc21` [BMS 614], the Kd [1] is listed as 0.0025 µM, the “RARγ Kd” value [2] is listed as “not bound” and the “antagonism of RARβ transactivation” value [10] is listed as “at best modestly”. For the same molecule, the “agonist or antagonist action at RARα” value [11] was “antagonist”, the “molar excess to RA at which RARα transactivation is antagonised” value [11] was 100 fold and the “Receptor Specificity” value [4] was “RARα”. For the same molecule, the “antagonism of RARγ transactivation” value [12] was “no antagonism” and the “RARβ Kd” value [6] was “not bound”.
For `CC1(C)CC=C(c2ccccc2)c2cc(C(=O)Nc3ccc(C(=O)O)cc3)ccc21` [BMS 185411], the Kd [1] is given as roughly 0.15 µM, the Kd [2] is given as roughly 20 µM and the “agonist or antagonist action at RARβ” value [10] is given as “agonist”. The “agonist or antagonist action at RARα” value [11] was “antagonist”, the “Receptor Specificity” value [4] was “RARα” and the “activity in the acute promyelocytic leukemia assay” value [13] was “no activity”. The “agonist or antagonist action at RARγ” value [12] was “weak agonist” and the Kd [6] was roughly 1.3 µM.
In the case of `O=C(O)c1ccc2cc(-c3ccc(O)c(C45CC6CC(CC(C6)C4)C5)c3)ccc2c1` [CD437], the “binding to RARs and RXRs” value [14] is listed as “weakly bind”.
In the case of `CC1=C(/C=C/C(C)=C/C=C/C(C)=C/C(=O)Nc2ccc(O)cc2)C(C)(C)CCC1` [Fenretinide, N-[4-hydroxyphenyl]retinamide], the “binding to RARs and RXRs” value [14] is given as “weakly bind”, the “binding to RARs and RXRs” value ([14]; listed as 4-hydroxphenylretinamide) is given as “weakly” and the “trans-activation of the nuclear retinoid receptors” value [15] is given as “poorly trans-activates the nuclear retinoid receptors”. For the same molecule, the “concentrations of vitamin A and RBP in the bloodstream” value [16] was “lower the concentrations of both vitamin A and retinol binding protein (RBP)”, the “symptoms of vitamin A insufficiency” value [16] was “impaired dark vision adaptation and epithelial keratosis” and the “binding to RBP and effect on RBP-TTR” value [17] was “binds to RBP, displacing RBP from transthyretin (TTR)”.
In the case of `CCCCCCCOc1cc2c(cc1/C(C)=C/c1ccc(C(=O)O)cc1)C(C)(C)CCS2(=O)=O` [Ro 41-5253], the Kd [1] is given as 0.06 µM, the Kd [2] is given as 3.3 µM and the “Receptor Specificity” value [4] is given as “RARα”. For the same molecule, the Kd [6] was 2.4 µM.
For `CCCCCCCOc1cc2c(cc1/C(C)=C/C=C/C(C)=C/C(=O)O)C(C)(C)CCS2(=O)=O` [Ro 46-5471], the Kd [1] is given as 0.027 µM, the Kd [2] is given as 0.24 µM and the “Receptor Specificity” value [4] is given as “RARα”. For the same molecule, the Kd [6] was 5.1 µM.
For BMS 189453, the Kd [1] is listed as roughly 0.015 µM, the “mammary epithelial cell growth” value [18] is listed as “inhibits mammary epithelial cell growth” and the Kd [2] is listed as roughly 0.02 µM. The overt toxicity ([19]; 2, 10, 50 mg/kg doses) was “not overtly toxic”, the “testicular atrophy after ceasing treatment” value ([19]; 30 days after ceasing treatment, 2-50 mg/kg) was “testicular atrophy was seen at even low doses” and the overt toxicity ([19]; rats, 240 mg/kg daily for 30 days) was “Overt toxicity was observed”. The testicular toxicity ([19]; rats, 2, 10, 50 mg/kg for 1, 3, 7 days) was “caused the atrophy and degeneration of testicular cells”, the effect on myocardiogenesis [20] was “suppress myocardiogenesis” and the “agonist or antagonist action at RARβ” value [10] was “weak RARβ agonist”. The “transactivation of the RARs” value [21] was “does not transactivate the RARs”, the “gene expression of pro-inflammatory collagenase” value [22] was “suppresses gene expression of pro-inflammatory collagenase” and the “overt toxicity or hypovitaminosis A” value [23] was “not observed”. The “inflammation and joint erosion” value ([23]; mouse and rat, two models) was “delayed the onset, severity, and progression of inflammation and joint erosion”, the “agonist or antagonist action at RARα” value [11] was “antagonist” and the “Receptor Specificity” value [4] was “RARαγ”. For the same molecule, the “progression of experimental glomerulonephritis” value [24] was “reduce the progression of experimental glomerulonephritis”, the “toxicity (eating or drinking, posturing or behavior, weight loss)” value [24] was “did not show toxicity” and the testicular toxicity [25] was “caused the atrophy and degeneration of testicular cells”. For the same molecule, the “agonist or antagonist action at RARγ” value [12] was “antagonist” and the AP-1 activity [26] was “represses AP-1 activity”.
